Measurements from US8846698B2, “Pyrrolo[2,3-d]pyrimidine tropomysin-related kinase inhibitors” (Pfizer Limited, priority 2011, dated 2014).
Where a name gives a salt, the structure may show the parent alone.

Target: TRKA (Homo sapiens (Human), UniProt P04629)
Test: Isolated TRK enzyme assay (HTRF KinEASE-TK), TRKA
Assay type: biochemical
Details: read-out: Trka enzyme (IC50)

Chain of TRKA (P04629 441-796): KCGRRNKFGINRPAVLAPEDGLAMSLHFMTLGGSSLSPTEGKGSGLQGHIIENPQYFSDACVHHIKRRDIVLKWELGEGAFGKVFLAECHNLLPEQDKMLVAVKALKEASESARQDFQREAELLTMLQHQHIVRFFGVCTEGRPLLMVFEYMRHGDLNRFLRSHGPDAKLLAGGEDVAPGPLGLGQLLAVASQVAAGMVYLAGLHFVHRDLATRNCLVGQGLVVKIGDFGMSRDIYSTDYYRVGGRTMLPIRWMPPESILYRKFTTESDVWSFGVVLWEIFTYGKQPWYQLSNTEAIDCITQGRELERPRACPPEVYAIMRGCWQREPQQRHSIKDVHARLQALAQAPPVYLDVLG

| Structure (SMILES) | IC50 [nM] |
| --- | --- |
| CC(C)n1cc(C(=O)c2cncc(NC(=O)c3cnc4[nH]cnc4c3)c2)c2cncnc21 [Example 487, 3H-Imidazo[4,5-b]pyridine-6-carboxylic acid [5-(7-isopropyl-7H-pyrrolo[2,3-d]pyrimidine-5-carbonyl)-pyridin-3-yl]-amide] | 9800 |
| CC(C)n1cc(C(=O)c2cncc(NC(=O)c3cocn3)c2)c2cncnc21 [Example 493, Oxazole-4-carboxylic acid [5-(7-isopropyl-7H-pyrrolo[2,3-d]pyrimidine-5-carbonyl)-pyridin-3-yl]-amide] | 848 |
| CC(C)n1cc(C(=O)c2cncc(NC(=O)Cc3c[nH]c4nccnc34)c2)c2cncnc21 [Example 159, N-{5-[(7-isopropyl-7H-pyrrolo[2,3-d]pyrimidin-5-yl)carbonyl]pyridin-3-yl}-2-(5H-pyrrolo[2,3-b]pyrazin-7-yl)acetamide] | 234 |
| Cc1cccnc1C(=O)Nc1cncc(C(=O)c2cn(C(C)C)c3ncncc23)c1 [Example 490, 3-Methyl-pyridine-2-carboxylic acid[5-(7-isopropyl-7H-pyrrolo[2,3-d]pyrimidine-5-carbonyl)-pyridin-3-yl]-amide] | 9800 |
| CC(C)(CO)n1cc(C(=O)c2cncc(NC(=O)Cc3ccc(C#N)cn3)c2)c2cnc(N)nc21 [Example 351, N-{5-[2-Amino-7-(2-hydroxy-1,1-dimethyl-ethyl)-7H-pyrrolo[2,3-d]pyrimidine-5-carbonyl]-pyridin-3-yl}-2-(5-cyano-pyridin-2-yl)-acetamide] | 21.1 |
| Cn1cc(C(=O)c2cncc(NC(=O)CCc3ccccc3)c2)c2cncnc21 [Example 329, N-{5-[(7-methyl-7H-pyrrolo[2,3-d]pyrimidin-5-yl)carbonyl]pyridin-3-yl}-3-phenylpropanamide] | 9810 |
| Cc1cc(C)n(CC(=O)Nc2cncc(C(=O)c3cn(C(C)C)c4ncncc34)c2)n1 [Example 115, 2-(3,5-dimethyl-1H-pyrazol-1-yl)-N-{5-[(7-isopropyl-7H-pyrrolo[2,3-d]pyrimidin-5-yl)carbonyl]pyridin-3-yl}acetamide] | 102 |
| CC(C)n1cc(C(=O)c2cncc(NC(=O)Cc3c[nH]c4ccc(O)cc34)c2)c2cncnc21 [Example 158, 2-(5-hydroxy-1H-indol-3-yl)-N-{5-[(7-isopropyl-7H-pyrrolo[2,3-d]pyrimidin-5-yl)carbonyl]pyridin-3-yl}acetamide] | 230 |
| CC(C)n1cc(C(=O)c2cncc(NC(=O)Cn3ccc(C(F)(F)F)n3)c2)c2cncnc21 [Example 97, N-{5-[(7-isopropyl-7H-pyrrolo[2,3-d]pyrimidin-5-yl)carbonyl]pyridin-3-yl}-2-[3-(trifluoromethyl)-1H-pyrazol-1-yl]acetamide] | 4.86 |
| CC(C)n1cc(C(=O)c2cncc(NC(=O)c3cc(C4CC4)n[nH]3)c2)c2cncnc21 [Example 497, 5-Cyclopropyl-2H-pyrazole-3-carboxylic acid [5-(7-isopropyl-7H-pyrrolo[2,3-d]pyrimidine-5-carbonyl)-pyridin-3-yl]-amide] | 43.5 |
| Cn1cc(C(=O)c2cncc(NC(=O)Cc3cccc(SC(F)(F)F)c3)c2)c2cncnc21 [Example 185, N-{5-[(7-methyl-7H-pyrrolo[2,3-d]pyrimidin-5-yl)carbonyl]pyridin-3-yl}-2-{3-[(trifluoromethyl)thio]phenyl}acetamide] | 67.4 |
| CC(C)n1cc(C(=O)c2cncc(NC(=O)Cc3ccc4cccnc4c3)c2)c2cncnc21 [Example 100, N-{5-[(7-isopropyl-7H-pyrrolo[2,3-d]pyrimidin-5-yl)carbonyl]pyridin-3-yl}-2-quinolin-7-ylacetamide] | 25.6 |
| Cn1cc(C(=O)c2cncc(NC(=O)Nc3ccc(OC(F)(F)F)cc3)c2)c2cncnc21 [Example 296, 1-{5-[(7-methyl-7H-pyrrolo[2,3-d]pyrimidin-5-yl)carbonyl]pyridin-3-yl}-3-[4-(trifluoromethoxy)phenyl]urea] | 47.7 |
| C[C@@H](C(=O)Nc1cncc(C(=O)c2cn(C)c3ncncc23)c1)c1ccccc1 [Example 338, (2R)—N-{5-[(7-methyl-7H-pyrrolo[2,3-d]pyrimidin-5-yl)carbonyl]pyridin-3-yl}-2-phenylpropanamide] | 2730 |
| CC(C)n1cc(C(=O)c2cncc(NC(=O)Cc3ccc4c(c3)CCO4)c2)c2cncnc21 [Example 92, 2-(2,3-dihydro-1-benzofuran-5-yl)-N-{5-[(7-isopropyl-7H-pyrrolo[2,3-d]pyrimidin-5-yl)carbonyl]pyridin-3-yl}acetamide] | 41.5 |
| Cc1cncc(C(=O)Nc2cncc(C(=O)c3cn(C(C)C)c4ncncc34)c2)n1 [Example 464, 6-Methyl-pyrazine-2-carboxylic acid[5-(7-isopropyl-7H-pyrrolo[2,3-d]pyrimidine-5-carbonyl)-pyridin-3-yl]-amide] | 3010 |
| CC(C)n1cc(C(=O)c2cncc(NC(=O)c3cn(C4CCC4)cn3)c2)c2cncnc21 [Example 500, 1-Cyclobutyl-1H-imidazole-4-carboxylic acid [5-(7-isopropyl-7H-pyrrolo[2,3-d]pyrimidine-5-carbonyl)-pyridin-3-yl]-amide] | 25.8 |
| CC(C)n1cc(C(=O)c2cncc(NC(=O)CN3Cc4ccc(F)cc4C3=O)c2)c2cncnc21 [Example 78, 2-(6-fluoro-1-oxo-1,3-dihydro-2H-isoindol-2-yl)-N-{5-[(7-isopropyl-7H-pyrrolo[2,3-d]pyrimidin-5-yl)carbonyl]pyridin-3-yl}acetamide] | 203 |
| Cc1cc(CC(=O)Nc2cncc(C(=O)c3cn(C(C)C)c4ncncc34)c2)[nH]n1 [Example 134, N-{5-[(7-isopropyl-7H-pyrrolo[2,3-d]pyrimidin-5-yl)carbonyl]pyridin-3-yl}-2-(3-methyl-1H-pyrazol-5-yl)acetamide] | 330 |
| CC1(n2cc(C(=O)c3cncc(NC(=O)Cn4ccc(C(F)(F)F)n4)c3)c3cncnc32)COC1 [Example 311, N-(5-{[7-(3-methyloxetan-3-yl)-7H-pyrrolo[2,3-d]pyrimidin-5-yl]carbonyl}pyridin-3-yl)-2-[3-(trifluoromethyl)-1H-pyrazol-1-yl]acetamide] | 238 |
| CC(C)n1cc(C(=O)c2cncc(NC(=O)Cn3ncc4cc(F)ccc43)c2)c2cncnc21 [Example 95, 2-(5-fluoro-1H-indazol-1-yl)-N-{5-[(7-isopropyl-7H-pyrrolo[2,3-d]pyrimidin-5-yl)carbonyl]pyridin-3-yl}acetamide] | 3.95 |
| CC(C)n1cc(C(=O)c2cncc(NC(=O)Cc3cccc(CN4CCOCC4)c3)c2)c2cncnc21 [Example 268, N-{5-[(7-isopropyl-7H-pyrrolo[2,3-d]pyrimidin-5-yl)carbonyl]pyridin-3-yl}-2-[3-(morpholin-4-ylmethyl)phenyl]acetamide formate salt] | 579 |
| CC(C)n1cc(C(=O)c2cncc(NC(=O)Cn3cc4cccc(F)c4n3)c2)c2cncnc21 [Example 101, 2-(7-fluoro-2H-indazol-2-yl)-N-{5-[(7-isopropyl-7H-pyrrolo[2,3-d]pyrimidin-5-yl)carbonyl]pyridin-3-yl}acetamide] | 204 |
| Cc1c(Cl)c(C(=O)Nc2cncc(C(=O)c3cn(C(C)C)c4ncncc34)c2)nn1C [Example 443, 4-Chloro-1,5-dimethyl-1H-pyrazole-3-carboxylic acid [5-(7-isopropyl-7H-pyrrolo[2,3-d]pyrimidine-5-carbonyl)-pyridin-3-yl]amide] | 47.7 |
